Where two headings read alike, the source gives them in different places.
Columns and labels:
GR = biological target: T1, GR (Homo sapiens, UniProt P04150); test: GR reporter gene assay in HEK293; format: cell-based; settings: for IC50: reporter gene assay, HEK293, agonist dexamethasone 1 nM, read-out: GR antagonistic activity (IC50)
T1 construct: expressed in transfected cells; host or cells: HEK293
T1 sequence (P04150 1-777): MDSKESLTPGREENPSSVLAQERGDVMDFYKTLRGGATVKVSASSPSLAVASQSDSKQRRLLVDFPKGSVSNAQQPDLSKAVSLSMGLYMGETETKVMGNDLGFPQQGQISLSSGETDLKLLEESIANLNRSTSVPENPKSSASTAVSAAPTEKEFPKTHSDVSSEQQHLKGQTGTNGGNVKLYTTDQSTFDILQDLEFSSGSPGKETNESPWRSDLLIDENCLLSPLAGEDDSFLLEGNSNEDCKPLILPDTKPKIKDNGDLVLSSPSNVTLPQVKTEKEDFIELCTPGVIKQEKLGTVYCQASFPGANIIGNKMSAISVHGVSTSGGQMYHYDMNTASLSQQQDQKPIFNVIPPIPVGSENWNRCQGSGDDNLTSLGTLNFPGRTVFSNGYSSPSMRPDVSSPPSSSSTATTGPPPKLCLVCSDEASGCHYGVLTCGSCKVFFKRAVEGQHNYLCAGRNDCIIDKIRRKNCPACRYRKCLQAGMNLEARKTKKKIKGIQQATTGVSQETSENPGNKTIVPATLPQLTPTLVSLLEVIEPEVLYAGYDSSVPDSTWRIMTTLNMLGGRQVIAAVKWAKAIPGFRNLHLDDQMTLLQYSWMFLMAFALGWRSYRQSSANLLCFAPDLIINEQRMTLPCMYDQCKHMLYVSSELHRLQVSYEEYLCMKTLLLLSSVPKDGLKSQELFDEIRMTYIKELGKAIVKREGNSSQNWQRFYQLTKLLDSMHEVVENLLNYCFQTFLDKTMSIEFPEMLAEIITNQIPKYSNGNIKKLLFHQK

[1] = system: LNCaP cells (T877A mutation in the AR LBD); test: PSA level (ELISA) in LNCaP cell line; format: cell-based, human; settings: for IC50: Homo sapiens, LNCaP, dihydrotestosterone 10 nM, 48 h, ± SEM
Excerpt: Chronic administration of AR antagonists often leads to the development of resistance. […] In contrast, another AR antagonist, enzalutamide, was reported to antagonize AR mutant T877A [23]. Thus, development of a novel chemical class of AR antagonists, different from flutamide analogs seems an attractive approach for the treatment of AR antagonist-resistant cancer, providing further motivation to evaluate steroid surrogates. Therefore, we investigated the antiandrogenic activity of several potent AR antagonists by means of PSA (prostate-specific antigen, an AR-regulated gene) ELISA (enzyme-linked immunosorbent assay) in human prostate cancer cell line LNCaP, which has T877A mutation in the AR LBD.
The human prostate cancer cell line LNCaP (ECACC, London, UK) was routinely maintained in RPMI1640 containing 10% (v/v) fetal bovine serum, and penicillin/streptomycin at 37 °C in a humidified atmosphere of 5% CO2 in air. Cells were cultured in RPMI1640 without phenol red containing 10% (v/v) charcoal-stripped fetal bovine serum, and penicillin/streptomycin at 37 °C in a humidified atmosphere of 5% CO2 in air for 3 days. Then cells were plated in 96-well plates at 1 × 10^4 cells/well and incubated overnight. On the next day, cells were treated with fresh media containing test compound plus dihydrotestosterone (final concentration 10 nM), and incubated for 48 h. Then, PSA levels were measured in the culture supernatants, after 100-fold dilution with the medium, using ELISA (Immunospec Corp., CA, USA Free prostate-specific antigen cat. #E29-212) according to the manufacturer’s instructions. All data points were carried out twice in triplicate.

LXRβ [2] = biological target: T2, LXRβ (Homo sapiens, UniProt P55055); settings: read-out: LXRβ antagonistic activity (IC50); cited from earlier work
T2 construct: CMX-GAL4N-hLXRβ-LBD; expressed in transfected cells; host or cells: HEK293
T2 sequence (P55055 222-460 limits assumed): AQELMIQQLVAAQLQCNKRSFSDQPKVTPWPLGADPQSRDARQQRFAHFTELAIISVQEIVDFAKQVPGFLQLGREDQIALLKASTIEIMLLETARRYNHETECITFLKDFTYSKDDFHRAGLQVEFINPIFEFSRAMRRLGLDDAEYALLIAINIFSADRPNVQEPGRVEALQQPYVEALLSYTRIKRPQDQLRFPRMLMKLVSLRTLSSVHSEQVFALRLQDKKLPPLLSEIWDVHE

LXRβ [3] = biological target: T2, LXRβ; test: LXRβ reporter gene assay in HEK293; format: cell-based; settings: read-out: LXRβ antagonistic activity (IC50)
PR [4] = biological target: T3, PR (Homo sapiens, UniProt P06401); settings: cited from earlier work; for IC50: alkaline phosphatase, T47D cells, progesterone 1 nM, read-out: PR antagonistic activity (IC50)
T3 sequence (P06401 1-933): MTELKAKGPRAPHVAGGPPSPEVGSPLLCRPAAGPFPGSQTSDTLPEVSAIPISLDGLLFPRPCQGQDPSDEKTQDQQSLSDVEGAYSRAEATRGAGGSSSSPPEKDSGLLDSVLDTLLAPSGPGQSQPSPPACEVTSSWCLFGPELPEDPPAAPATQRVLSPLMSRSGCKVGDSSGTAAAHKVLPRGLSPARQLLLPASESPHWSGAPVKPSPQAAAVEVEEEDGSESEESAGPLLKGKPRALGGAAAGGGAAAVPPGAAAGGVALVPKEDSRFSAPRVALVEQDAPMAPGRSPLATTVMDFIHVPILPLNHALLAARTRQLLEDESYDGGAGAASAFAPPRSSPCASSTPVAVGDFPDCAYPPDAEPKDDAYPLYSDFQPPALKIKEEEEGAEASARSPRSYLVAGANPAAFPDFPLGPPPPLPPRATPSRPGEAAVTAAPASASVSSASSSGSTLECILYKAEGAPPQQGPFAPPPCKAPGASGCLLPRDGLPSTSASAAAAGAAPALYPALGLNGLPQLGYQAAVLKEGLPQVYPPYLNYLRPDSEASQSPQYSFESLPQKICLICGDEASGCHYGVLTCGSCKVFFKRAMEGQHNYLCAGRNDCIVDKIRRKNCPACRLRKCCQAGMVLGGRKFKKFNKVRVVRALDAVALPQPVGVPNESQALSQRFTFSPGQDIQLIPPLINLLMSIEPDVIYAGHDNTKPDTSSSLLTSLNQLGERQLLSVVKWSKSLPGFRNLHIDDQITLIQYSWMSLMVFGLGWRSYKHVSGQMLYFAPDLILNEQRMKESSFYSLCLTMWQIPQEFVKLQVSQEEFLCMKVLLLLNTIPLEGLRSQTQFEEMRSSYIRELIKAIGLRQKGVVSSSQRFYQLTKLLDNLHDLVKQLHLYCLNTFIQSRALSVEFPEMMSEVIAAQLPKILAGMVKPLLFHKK

PR [5] = biological target: T3, PR; test: T-47D alkaline phosphatase assay (PR antagonism); format: cell-based

Row | IC50 (GR) [µM] | IC50 (LXRβ [3]) [µM] | SMILES | further results
1 | > 20 | – | O=c1[nH]c2ccc(C(O)(C(F)(F)F)C(F)(F)F)cc2c2ccccc12 [Compound 1] | IC50 [1]: > 10 µM; IC50 (LXRβ [2]): 5.1 µM
2 | > 20 | 15 | CCCCn1c(=O)c2ccccc2c2ccccc21 [Compound 7] | –
3 | > 20 | > 20 | CCCCn1c(=O)c2ccccc2c2cc(C(C)(C)C)ccc21 [Compound 10] | –
4 | > 20 | > 20 | CCCCn1c(=O)c2ccccc2c2cc(CO)ccc21 [Compound 11] | –
5 | > 20 | – | Cn1c(=O)c2ccccc2c2cc(C(O)(C(F)(F)F)C(F)(F)F)ccc21 [Compound 13] | IC50 [1]: > 10 µM; IC50 (LXRβ [2]): > 20 µM
6 | > 20 | 6.6 | CCn1c(=O)c2ccccc2c2cc(C(O)(C(F)(F)F)C(F)(F)F)ccc21 [Compound 14] | –
7 | > 20 | > 20 | CCCCCCCCCn1c(=O)c2ccccc2c2cc(C(O)(C(F)(F)F)C(F)(F)F)ccc21 [Compound 17] | –
8 | > 20 | > 20 | CCCCn1c(=O)c2ccccc2c2c(OC)c(C(O)(C(F)(F)F)C(F)(F)F)ccc21 [Compound 18] | –
9 | 1.3 | 9.2 | CCCCn1c(=O)c2ccccc2c2cc(C(O)(C(F)(F)F)C(F)(F)F)c(OC)cc21 [Compound 19] | enhanced PR activity compared with unsubstituted analog 12 (PR [4]): more than 3 fold; improved GR activity compared with 12 (GR): 5.7 fold
10 | 3.9 | 5.5 | CCCCn1c(=O)c2ccccc2c2cc(C(O)(C(F)(F)F)C(F)(F)F)cc(OC)c21 [Compound 20] | enhanced PR activity compared with unsubstituted analog 12 (PR [4]): > 2 fold
11 | 14 | 12 | CCCCn1c(=O)c2c(OC)cccc2c2cc(C(O)(C(F)(F)F)C(F)(F)F)ccc21 [Compound 21] | –
12 | 8.2 | 11 | CCCCn1c(=O)c2cc(OC)ccc2c2cc(C(O)(C(F)(F)F)C(F)(F)F)ccc21 [Compound 22] | –
13 | 10 | 2.4 | CCCCn1c(=O)c2ccc(OC)cc2c2cc(C(O)(C(F)(F)F)C(F)(F)F)ccc21 [Compound 23] | weaker PR activity than 12 (PR [5]): 5 fold
14 | > 20 | 4.3 | CCCCn1c(=O)c2cccc(OC)c2c2cc(C(O)(C(F)(F)F)C(F)(F)F)ccc21 [Compound 24] | –
15 | > 20 | 9.6 | CCCCn1c(=O)c2ccccc2c2cc(C(O)(C(F)(F)F)C(F)(F)F)c(OC)c(OC)c21 [Compound 25] | IC50 (PR [4]): 0.51 µM
16 | 0.76 | > 20 | CCCCn1c(=O)c2ccccc2c2cc(C(O)(C(F)(F)F)C(F)(F)F)c3c(c21)OCO3 [Compound 26] | IC50 (PR [4]): 0.23 µM; IC50 [1]: 0.56 ± 0.26 µM
17 | 1.7 | 18 | CCCCn1c(=O)c2cc(OC)ccc2c2cc(C(O)(C(F)(F)F)C(F)(F)F)c(OC)cc21 [Compound 27] | IC50 (PR [4]): 0.3 µM
18 | 5.2 | > 10 | CCCCn1c(=O)c2cc(OC)ccc2c2cc(C(O)(C(F)(F)F)C(F)(F)F)cc(OC)c21 [Compound 28] | IC50 (PR [4]): 0.34 µM
19 | 7.9 | 3.2 | CCCCn1c(=O)c2c(OC)c(OC)ccc2c2cc(C(O)(C(F)(F)F)C(F)(F)F)ccc21 [Compound 29] | IC50 (PR [4]): 4.2 µM
20 | > 20 | > 20 | CCCCn1c(=O)c2c(OC)cc(OC)cc2c2cc(C(O)(C(F)(F)F)C(F)(F)F)ccc21 [Compound 30] | IC50 (PR [4]): > 20 µM
21 | 17 | 8.9 | CCCCn1c(=O)c2cc(OC)c(OC)cc2c2cc(C(O)(C(F)(F)F)C(F)(F)F)ccc21 [Compound 31] | IC50 (PR [4]): 9.6 µM
22 | 6.9 | 4.6 | O=c1[nH]c2c(F)cc(C(O)(C(F)(F)F)C(F)(F)F)cc2c2ccccc12 [Compound 32] | IC50 [1]: 0.49 ± 0.26 µM
23 | 9.8 | 3.1 | O=c1[nH]c2ccc(C(O)(C(F)(F)F)C(F)(F)F)cc2c2cccc(F)c12 [Compound 33] | IC50 [1]: 0.19 ± 0.095 µM
24 | > 20 | 6 | O=c1[nH]c2ccc(C(O)(C(F)(F)F)C(F)(F)F)cc2c2ccc(F)cc12 [Compound 34] | IC50 [1]: > 10 µM
25 | 7 | 5.4 | O=c1[nH]c2ccc(C(O)(C(F)(F)F)C(F)(F)F)cc2c2cc(F)ccc12 [Compound 35] | IC50 [1]: 0.55 ± 0.11 µM
26 | > 20 | > 20 | COc1cc(C(O)(C(F)(F)F)C(F)(F)F)cc2c1[nH]c(=O)c1ccccc12 [Compound 39] | –
27 | > 20 | > 20 | CCc1cc(C(O)(C(F)(F)F)C(F)(F)F)cc2c1[nH]c(=O)c1ccccc12 [Compound 41] | –
28 | 16 | 20 | CCCc1cc(C(O)(C(F)(F)F)C(F)(F)F)cc2c1[nH]c(=O)c1ccccc12 [Compound 42] | –
29 | > 20 | > 20 | O=c1[nH]c2c(Cl)cc(C(O)(C(F)(F)F)C(F)(F)F)cc2c2ccccc12 [Compound 43, 4-Chloro-2-(1,1,1,3,3,3-hexafluoro-2-hydroxypropan-2-yl)phenanthridin-6(5H)-one] | antiandrogenic activity in LNCaP [1]: did not show antiandrogenic activity; IC50 [1]: > 10 µM; IC50 (PR [5]; alkaline phosphatase, T47D cells, progesterone 1 nM, new compound 43, read-out: PR antagonistic activity (IC50)): 0.35 µM

Reference: publication PMC6073568, “Efficient Lead Finding, Activity Enhancement and Preliminary Selectivity Control of Nuclear Receptor Ligands Bearing a Phenanthridinone Skeleton” (International Journal of Molecular Sciences, 2018)
